This passage reports Ki and EC50 results from US12252524B2, “GIP/GLP1 co-agonist compounds” (Eli Lilly and Company, priority 2018, dated 2025).

The target in one assay is T1, human Gcg receptor (Homo sapiens, UniProt P47871).
T1 construct: expressed in transfected cells; crude membranes
The experiment in a line: [125I]-Glucagon binding (SPA), human Gcg receptor. Conditions: read-out: hGLcgR Ki, nM (SEM, n). In a few lines: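 Cell pellets were lysed in hypotonic Tris buffer, pH 7.5, homogenized, and spun at low then high speed to give crude membranes. Ki was derived from the fitted IC50.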

For assay [1], the target named is T2, gastric inhibitory peptide receptor (GIPR) (Homo sapiens, UniProt P48546).
T2 sequence (P48546 22-466): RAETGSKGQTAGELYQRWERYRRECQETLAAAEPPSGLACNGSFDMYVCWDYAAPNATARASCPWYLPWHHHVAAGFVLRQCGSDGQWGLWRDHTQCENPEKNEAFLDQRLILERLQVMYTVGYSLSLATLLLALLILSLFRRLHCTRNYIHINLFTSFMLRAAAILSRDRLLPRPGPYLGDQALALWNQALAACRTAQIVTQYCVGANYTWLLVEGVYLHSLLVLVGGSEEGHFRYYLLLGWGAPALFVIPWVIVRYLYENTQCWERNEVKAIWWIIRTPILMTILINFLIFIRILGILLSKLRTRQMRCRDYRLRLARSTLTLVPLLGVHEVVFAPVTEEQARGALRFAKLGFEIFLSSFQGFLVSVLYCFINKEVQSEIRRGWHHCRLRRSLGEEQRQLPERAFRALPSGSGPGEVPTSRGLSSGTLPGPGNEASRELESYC
The experiment in a line: cAMP pharmacological functional assay in presence of casein, hGIPR. Type of assay: cell-based. Conditions: HEK293 cells expressing hGIPR, 0.1% Casein, geometric mean; read-out: hGIPR cAMP Rel EC50 nM (SEM, n).

For another assay, the target named is human GLP-1R (Homo sapiens, UniProt P43220). As to the kind of experiment: [125I]-GLP-1 binding (SPA), human GLP-1 receptor. Set-up: expressed in transfected cells; crude membranes. The settings on record: read-out: hGLP1R Ki, (nM) (SEM, n). In a few lines:
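Assay buffer: HEPES 25 mM, pH 7.4, CaCl2 2.5 mM, MgCl2 1 mM, with EDTA-free protease inhibitors. Receptor came from crude cell membranes prepared by homogenization and centrifugation at 4° C. IC50s came from four-parameter fits (maximum, minimum, IC50, Hill slope) and were expressed as Ki geometric means with SEM.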

The target in assay [2] is human GLP-1 receptor (GLP-1R) (Homo sapiens, UniProt P43220). As to the kind of experiment: cAMP pharmacological functional assay in presence of casein, hGLP-1R. Type of assay: cell-based. The settings on record: HEK293 cells expressing hGLP-1R, 0.1% Casein, geometric mean; read-out: hGLP1R cAMP Rel EC50 nM (SEM, n).
Another assay concerns the target T3, human GIP receptor (Homo sapiens, UniProt P48546).
T3 construct: expressed in transfected cells; crude membranes
T3 sequence (P48546 22-466): T2 sequence (P48546 22-466)
As to the kind of experiment: [125I]-GIP binding (SPA), human GIP receptor. Conditions: read-out: hGIPR Ki, nM (SEM, n).

Numbered stars: 1 amine (or outer) side, 2 acyl side, 3 side chain; on linkers, the order of the positions; unused ones are H or OH. Square brackets hold non-standard residues; d marks the D form. Side chains are listed from the residue outwards. Peptide text beside a SMILES is read from it. * marks the point of attachment. C20 diacid = O=C(O)CCCCCCCCCCCCCCCCCCC(=O)*; γGlu = O=C(O)[C@H](CCC(=O)[*:2])N[*:1]; αMeL = CC(C)C[C@](C)(N)C(=O)O; AEEA = NCCOCCOCC(=O)O; Aib = CC(C)(N)C(=O)O

T1 sequence (P47871 26-477): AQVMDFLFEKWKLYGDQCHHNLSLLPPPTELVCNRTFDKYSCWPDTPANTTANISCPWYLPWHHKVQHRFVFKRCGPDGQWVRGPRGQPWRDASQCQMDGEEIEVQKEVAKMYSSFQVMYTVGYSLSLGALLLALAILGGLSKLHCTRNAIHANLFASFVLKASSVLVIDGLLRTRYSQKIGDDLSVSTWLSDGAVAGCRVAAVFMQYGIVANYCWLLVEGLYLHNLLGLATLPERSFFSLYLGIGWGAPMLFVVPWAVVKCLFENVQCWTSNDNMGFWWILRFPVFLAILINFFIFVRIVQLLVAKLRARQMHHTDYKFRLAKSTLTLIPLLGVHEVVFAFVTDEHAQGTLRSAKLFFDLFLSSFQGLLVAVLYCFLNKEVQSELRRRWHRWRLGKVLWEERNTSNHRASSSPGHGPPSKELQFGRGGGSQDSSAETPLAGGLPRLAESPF
Chain of human GLP-1 receptor (GLP-1R) (P43220 24-463): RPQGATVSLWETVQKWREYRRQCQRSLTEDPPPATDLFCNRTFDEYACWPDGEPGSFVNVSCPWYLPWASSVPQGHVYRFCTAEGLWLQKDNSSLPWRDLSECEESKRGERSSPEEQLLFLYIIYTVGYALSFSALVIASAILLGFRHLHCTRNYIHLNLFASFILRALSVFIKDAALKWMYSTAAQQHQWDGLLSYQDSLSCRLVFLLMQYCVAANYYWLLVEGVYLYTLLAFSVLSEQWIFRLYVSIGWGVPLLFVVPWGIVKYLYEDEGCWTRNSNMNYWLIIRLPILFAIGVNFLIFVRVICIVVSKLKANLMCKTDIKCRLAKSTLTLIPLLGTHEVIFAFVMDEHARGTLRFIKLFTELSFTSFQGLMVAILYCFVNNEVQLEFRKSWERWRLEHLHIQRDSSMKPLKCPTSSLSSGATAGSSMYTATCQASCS
Chain of human GLP-1R (P43220 24-463): as above

As a reminder, the Ki is a measure of affinity in units of concentration, obtained from inhibition or displacement. One may read the EC50 as the concentration that produces a half-maximal response. For the compound `CC[C@H](C)[C@H](NC(=O)[C@H](CC(C)C)NC(=O)[C@H](Cc1ccc(O)cc1)NC(=O)[C@H](CCC(=O)O)NC(=O)[C@@H](NC(=O)[C@H](Cc1ccccc1)NC(=O)[C@H](C)NC(=O)C(C)(C)NC(=O)[C@H](CCC(N)=O)NC(=O)[C@H](C)NC(=O)[C@H](CCCCNC(=O)COCCOCCNC(=O)COCCOCCNC(=O)CC[C@H](NC(=O)CCCCCCCCCCCCCCCCCCC(=O)O)C(=O)O)NC(=O)[C@H](CO)NC(=O)[C@H](CC(=O)O)NC(=O)[C@H](CC(C)C)NC(=O)[C@](C)(CC(C)C)NC(=O)[C@@H](NC(=O)[C@H](CO)NC(=O)[C@H](Cc1ccc(O)cc1)NC(=O)[C@H](CC(=O)O)NC(=O)[C@H](CO)NC(=O)[C@@H](NC(=O)[C@H](Cc1ccccc1)NC(=O)[C@@H](NC(=O)CNC(=O)[C@H](CCC(=O)O)NC(=O)C(C)(C)NC(=O)[C@@H](N)Cc1ccc(O)cc1)[C@@H](C)O)[C@@H](C)O)[C@@H](C)CC)[C@@H](C)CC)C(=O)N[C@@H](CCC(=O)O)C(=O)NCC(=O)NCC(=O)N1CCC[C@H]1C(=O)N[C@@H](CO)C(=O)N[C@@H](CO)C(=O)NCC(=O)N[C@@H](C)C(=O)N1CCC[C@H]1C(=O)N1CCC[C@H]1C(=O)N1CCC[C@H]1C(=O)N[C@@H](CO)C(N)=O` [Example 52] (H-Y[Aib]EGTFTSDYSI[αMeL]LDSK([AEEA-AEEA-γGlu-C20 diacid])AQ[Aib]AFIEYLIEGGPSSGAPPPS-NH2), the results for the Ki on human Gcg receptor, on human GLP-1R and at human GIP receptor were above 1100 nM, 5.81 nM and 0.0342 nM, respectively. In addition, the EC50 came out at 0.0997 nM in assay [1] and 0.132 nM in assay [2].
Consider `CC[C@H](C)[C@H](NC(=O)[C@H](CC(C)C)NC(=O)[C@H](Cc1ccc(O)cc1)NC(=O)[C@H](CCC(=O)O)NC(=O)[C@@H](NC(=O)[C@H](Cc1ccccc1)NC(=O)[C@H](C)NC(=O)C(C)(C)NC(=O)[C@H](CCC(N)=O)NC(=O)[C@H](C)NC(=O)[C@H](CCCCNC(=O)COCCOCCNC(=O)COCCOCCNC(=O)CC[C@H](NC(=O)CCCCCCCCCCCCCCCCCCC(=O)O)C(=O)O)NC(=O)[C@H](CCCCN)NC(=O)[C@H](CC(=O)O)NC(=O)[C@H](CC(C)C)NC(=O)[C@](C)(CC(C)C)NC(=O)[C@@H](NC(=O)[C@H](CO)NC(=O)[C@H](Cc1ccc(O)cc1)NC(=O)[C@H](CC(=O)O)NC(=O)[C@H](CO)NC(=O)[C@@H](NC(=O)[C@H](Cc1ccccc1)NC(=O)[C@@H](NC(=O)CNC(=O)[C@H](CCC(=O)O)NC(=O)C(C)(C)NC(=O)[C@@H](N)Cc1c[nH]cn1)[C@@H](C)O)[C@@H](C)O)[C@@H](C)CC)[C@@H](C)CC)C(=O)N[C@@H](CCC(=O)O)C(=O)NCC(=O)NCC(=O)N1CCC[C@H]1C(=O)N[C@@H](CO)C(=O)N[C@@H](CO)C(=O)NCC(=O)N[C@@H](C)C(=O)N1CCC[C@H]1C(=O)N1CCC[C@H]1C(=O)N1CCC[C@H]1C(=O)N[C@@H](CO)C(N)=O` [Example 53] (H-H[Aib]EGTFTSDYSI[αMeL]LDKK([AEEA-AEEA-γGlu-C20 diacid])AQ[Aib]AFIEYLIEGGPSSGAPPPS-NH2; N-terminus assumed), for which the inhibitory constant (Ki) was 216 nM on human Gcg receptor, 1.23 nM on human GLP-1R and 0.188 nM at human GIP receptor. For the same compound, the concentration for a half-maximal effect (EC50) in assay [1] was 0.628 nM; in assay [2] it was 0.0339 nM.
Regarding `CC[C@H](C)[C@H](NC(=O)[C@H](CC(C)C)NC(=O)[C@H](Cc1ccc(O)cc1)NC(=O)[C@H](CCC(=O)O)NC(=O)[C@@H](NC(=O)[C@H](Cc1ccccc1)NC(=O)[C@H](C)NC(=O)[C@H](Cc1c[nH]cn1)NC(=O)[C@H](CCC(N)=O)NC(=O)[C@H](C)NC(=O)[C@H](CCCCNC(=O)COCCOCCNC(=O)COCCOCCNC(=O)CC[C@H](NC(=O)CCCCCCCCCCCCCCCCCCC(=O)O)C(=O)O)NC(=O)[C@H](CCCCN)NC(=O)[C@H](CC(=O)O)NC(=O)[C@H](CC(C)C)NC(=O)[C@](C)(CC(C)C)NC(=O)[C@@H](NC(=O)[C@H](CO)NC(=O)[C@H](Cc1ccc(O)cc1)NC(=O)[C@H](CC(=O)O)NC(=O)[C@H](CO)NC(=O)[C@@H](NC(=O)[C@H](Cc1ccccc1)NC(=O)[C@@H](NC(=O)CNC(=O)[C@H](CCC(=O)O)NC(=O)C(C)(C)NC(=O)[C@@H](N)Cc1c[nH]cn1)[C@@H](C)O)[C@@H](C)O)[C@@H](C)CC)[C@@H](C)CC)C(=O)N[C@@H](CCC(=O)O)C(=O)NCC(=O)NCC(=O)N1CCC[C@H]1C(=O)N[C@@H](CO)C(=O)N[C@@H](CO)C(=O)NCC(=O)N[C@@H](C)C(=O)N1CCC[C@H]1C(=O)N1CCC[C@H]1C(=O)N1CCC[C@H]1C(=O)N[C@@H](CO)C(N)=O` [Example 54] (H-H[Aib]EGTFTSDYSI[αMeL]LDKK([AEEA-AEEA-γGlu-C20 diacid])AQHAFIEYLIEGGPSSGAPPPS-NH2), the figures for the inhibition constant Ki at human Gcg receptor, at human GLP-1R and at human GIP receptor were 333 nM, 1.66 nM and 0.965 nM, respectively. In addition, the results for the half-maximal effective concentration (EC50) in assay [1] and in assay [2] were 1.57 nM and 0.0242 nM, respectively.
Regarding `CC[C@H](C)[C@H](NC(=O)[C@H](CC(C)C)NC(=O)[C@H](Cc1ccc(O)cc1)NC(=O)[C@H](CCC(=O)O)NC(=O)[C@@H](NC(=O)[C@H](Cc1ccccc1)NC(=O)[C@H](C)NC(=O)[C@H](Cc1c[nH]cn1)NC(=O)[C@H](CCC(N)=O)NC(=O)[C@H](C)NC(=O)[C@H](CCCCNC(=O)COCCOCCNC(=O)COCCOCCNC(=O)CC[C@H](NC(=O)CCCCCCCCCCCCCCCCCCC(=O)O)C(=O)O)NC(=O)[C@H](CCC(=O)O)NC(=O)[C@H](CC(=O)O)NC(=O)[C@H](CC(C)C)NC(=O)[C@](C)(CC(C)C)NC(=O)[C@@H](NC(=O)[C@H](CO)NC(=O)[C@H](Cc1ccc(O)cc1)NC(=O)[C@H](CC(=O)O)NC(=O)[C@H](CO)NC(=O)[C@@H](NC(=O)[C@H](Cc1ccccc1)NC(=O)[C@@H](NC(=O)CNC(=O)[C@H](CCC(=O)O)NC(=O)C(C)(C)NC(=O)[C@@H](N)Cc1c[nH]cn1)[C@@H](C)O)[C@@H](C)O)[C@@H](C)CC)[C@@H](C)CC)C(=O)N[C@@H](CCC(=O)O)C(=O)NCC(=O)NCC(=O)N1CCC[C@H]1C(=O)N[C@@H](CO)C(=O)N[C@@H](CO)C(=O)NCC(=O)N[C@@H](C)C(=O)N1CCC[C@H]1C(=O)N1CCC[C@H]1C(=O)N1CCC[C@H]1C(=O)N[C@@H](CO)C(N)=O` [Example 55] (H-H[Aib]EGTFTSDYSI[αMeL]LDEK([AEEA-AEEA-γGlu-C20 diacid])AQHAFIEYLIEGGPSSGAPPPS-NH2), the Ki at human Gcg receptor is above 1100 nM; on human GLP-1R, 7.29 nM; at human GIP receptor it was 6.24 nM. The concentration for a half-maximal effect (EC50) in assay [1] was found to be 5.45 nM; in assay [2] it was 0.0286 nM.
As to `CC[C@H](C)[C@H](NC(=O)[C@H](CC(C)C)NC(=O)[C@H](Cc1ccc(O)cc1)NC(=O)[C@H](CCC(=O)O)NC(=O)[C@@H](NC(=O)[C@H](Cc1ccccc1)NC(=O)[C@H](C)NC(=O)[C@H](Cc1c[nH]cn1)NC(=O)[C@H](CCC(N)=O)NC(=O)[C@H](C)NC(=O)[C@H](CCCCNC(=O)COCCOCCNC(=O)COCCOCCNC(=O)CC[C@H](NC(=O)CCCCCCCCCCCCCCCCCCC(=O)O)C(=O)O)NC(=O)[C@H](CCC(=O)O)NC(=O)[C@H](CC(=O)O)NC(=O)[C@H](CC(C)C)NC(=O)[C@](C)(CC(C)C)NC(=O)[C@@H](NC(=O)[C@H](CO)NC(=O)[C@H](Cc1ccc(O)cc1)NC(=O)[C@H](CC(=O)O)NC(=O)[C@H](CO)NC(=O)[C@@H](NC(=O)[C@H](Cc1ccccc1)NC(=O)[C@@H](NC(=O)CNC(=O)[C@H](CCC(=O)O)NC(=O)C(C)(C)NC(=O)[C@@H](N)Cc1ccc(O)cc1)[C@@H](C)O)[C@@H](C)O)[C@@H](C)CC)[C@@H](C)CC)C(=O)N[C@@H](CCC(=O)O)C(=O)NCC(=O)NCC(=O)N1CCC[C@H]1C(=O)N[C@@H](CO)C(=O)N[C@@H](CO)C(=O)NCC(=O)N[C@@H](C)C(=O)N1CCC[C@H]1C(=O)N1CCC[C@H]1C(=O)N1CCC[C@H]1C(=O)N[C@@H](CO)C(N)=O` [Example 56] (H-Y[Aib]EGTFTSDYSI[αMeL]LDEK([AEEA-AEEA-γGlu-C20 diacid])AQHAFIEYLIEGGPSSGAPPPS-NH2), the figures for the inhibitory constant (Ki) at human Gcg receptor, at human GLP-1R and on human GIP receptor were above 1060 nM, 10.3 nM and 0.148 nM, respectively. Besides, the 50% effective concentration (EC50) in assay [1] was 0.167 nM; in assay [2] it was 0.136 nM.
